Laboratory results published in ChEMBL document CHEMBL5291721, “A preclinical secondary pharmacology resource illuminates target-adverse drug reaction associations of marketed drugs” (Nat Commun, 2023).

Columns and labels:
Thromboxane A2 receptor = biological target: T1, Thromboxane A2 receptor (Homo sapiens, UniProt P21731); type: functional, cell-based
T1 sequence (P21731 whole entry): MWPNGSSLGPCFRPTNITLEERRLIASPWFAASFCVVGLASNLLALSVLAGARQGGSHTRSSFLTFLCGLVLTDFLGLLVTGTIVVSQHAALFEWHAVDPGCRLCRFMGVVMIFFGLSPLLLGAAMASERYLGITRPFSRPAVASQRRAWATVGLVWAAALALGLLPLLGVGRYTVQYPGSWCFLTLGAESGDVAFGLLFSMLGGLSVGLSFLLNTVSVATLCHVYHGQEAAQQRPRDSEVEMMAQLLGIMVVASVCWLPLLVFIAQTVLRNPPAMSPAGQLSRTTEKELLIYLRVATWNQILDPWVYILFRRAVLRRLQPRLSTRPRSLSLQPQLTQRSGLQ

Cannabinoid receptor 1 = Cannabinoid receptor 1 (Homo sapiens, UniProt P21554)
Sequence of Cannabinoid receptor 1 (P21554 whole entry): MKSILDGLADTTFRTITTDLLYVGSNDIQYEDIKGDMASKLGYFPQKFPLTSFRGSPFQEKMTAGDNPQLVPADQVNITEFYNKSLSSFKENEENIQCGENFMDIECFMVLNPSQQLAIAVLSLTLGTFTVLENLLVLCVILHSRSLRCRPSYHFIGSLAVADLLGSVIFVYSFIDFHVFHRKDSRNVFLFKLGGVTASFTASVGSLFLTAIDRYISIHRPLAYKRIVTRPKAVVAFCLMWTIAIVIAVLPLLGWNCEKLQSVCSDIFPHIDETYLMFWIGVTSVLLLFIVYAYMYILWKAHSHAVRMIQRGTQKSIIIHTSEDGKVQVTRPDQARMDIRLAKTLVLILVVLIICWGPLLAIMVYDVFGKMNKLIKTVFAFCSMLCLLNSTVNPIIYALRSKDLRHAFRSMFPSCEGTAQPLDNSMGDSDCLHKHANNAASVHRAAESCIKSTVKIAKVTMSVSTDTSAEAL

Progesterone receptor [1] = biological target: T2, Progesterone receptor (Homo sapiens, UniProt P06401); type: functional
T2 sequence (P06401 whole entry): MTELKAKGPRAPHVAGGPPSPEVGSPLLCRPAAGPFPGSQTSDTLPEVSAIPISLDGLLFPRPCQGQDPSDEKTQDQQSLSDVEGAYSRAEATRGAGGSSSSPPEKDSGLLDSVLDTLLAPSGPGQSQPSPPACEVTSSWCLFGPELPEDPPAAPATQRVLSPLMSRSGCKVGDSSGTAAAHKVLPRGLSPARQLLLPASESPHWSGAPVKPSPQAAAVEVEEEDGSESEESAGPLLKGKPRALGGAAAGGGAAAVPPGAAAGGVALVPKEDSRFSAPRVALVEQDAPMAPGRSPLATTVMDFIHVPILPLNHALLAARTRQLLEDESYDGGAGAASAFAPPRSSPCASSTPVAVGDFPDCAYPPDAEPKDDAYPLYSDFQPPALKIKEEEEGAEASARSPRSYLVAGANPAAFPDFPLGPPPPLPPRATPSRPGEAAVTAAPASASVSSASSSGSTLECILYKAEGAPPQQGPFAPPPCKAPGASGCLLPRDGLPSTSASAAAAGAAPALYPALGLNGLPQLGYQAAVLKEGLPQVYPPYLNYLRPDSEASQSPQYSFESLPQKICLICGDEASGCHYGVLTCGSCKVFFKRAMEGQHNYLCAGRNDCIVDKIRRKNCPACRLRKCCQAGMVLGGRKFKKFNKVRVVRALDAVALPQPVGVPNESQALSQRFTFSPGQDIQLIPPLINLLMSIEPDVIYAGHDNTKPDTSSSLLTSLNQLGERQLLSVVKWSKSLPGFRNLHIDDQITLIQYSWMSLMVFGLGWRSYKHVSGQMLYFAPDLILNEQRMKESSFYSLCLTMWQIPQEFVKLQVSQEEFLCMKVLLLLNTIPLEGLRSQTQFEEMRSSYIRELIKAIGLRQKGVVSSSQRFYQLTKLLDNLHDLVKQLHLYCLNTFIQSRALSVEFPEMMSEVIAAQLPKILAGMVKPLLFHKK

Histamine H3 receptor = Histamine H3 receptor (Homo sapiens, UniProt Q9Y5N1)
Sequence of Histamine H3 receptor (Q9Y5N1 whole entry): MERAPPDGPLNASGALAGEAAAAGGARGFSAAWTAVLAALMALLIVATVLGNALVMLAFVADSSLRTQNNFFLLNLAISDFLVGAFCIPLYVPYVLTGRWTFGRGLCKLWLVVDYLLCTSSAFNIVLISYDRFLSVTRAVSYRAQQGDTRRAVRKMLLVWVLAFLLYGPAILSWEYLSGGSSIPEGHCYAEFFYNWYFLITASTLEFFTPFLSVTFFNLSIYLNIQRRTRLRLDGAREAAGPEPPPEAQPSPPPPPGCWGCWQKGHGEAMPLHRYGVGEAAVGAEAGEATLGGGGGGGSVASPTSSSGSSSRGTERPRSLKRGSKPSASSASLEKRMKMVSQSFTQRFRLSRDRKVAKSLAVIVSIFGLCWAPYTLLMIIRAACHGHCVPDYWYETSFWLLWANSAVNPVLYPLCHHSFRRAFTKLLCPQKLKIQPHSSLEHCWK

Histamine H2 receptor = Histamine H2 receptor (Homo sapiens, UniProt P25021); type: functional, cell-based
Sequence of Histamine H2 receptor (P25021 whole entry): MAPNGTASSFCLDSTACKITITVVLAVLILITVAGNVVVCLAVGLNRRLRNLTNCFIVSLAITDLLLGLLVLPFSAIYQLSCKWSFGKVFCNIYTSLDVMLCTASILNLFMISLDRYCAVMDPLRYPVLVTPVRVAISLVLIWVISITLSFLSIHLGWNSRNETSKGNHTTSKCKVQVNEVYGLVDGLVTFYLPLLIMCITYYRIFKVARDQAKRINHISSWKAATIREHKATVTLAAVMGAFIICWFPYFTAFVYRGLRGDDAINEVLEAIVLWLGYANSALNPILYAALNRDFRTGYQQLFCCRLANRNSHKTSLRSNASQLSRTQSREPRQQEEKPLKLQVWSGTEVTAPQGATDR

[2] = biological target: 3',5'-cyclic-AMP phosphodiesterase 4A (Homo sapiens, UniProt P27815); type: functional
Sequence of 3',5'-cyclic-AMP phosphodiesterase 4A (P27815 whole entry): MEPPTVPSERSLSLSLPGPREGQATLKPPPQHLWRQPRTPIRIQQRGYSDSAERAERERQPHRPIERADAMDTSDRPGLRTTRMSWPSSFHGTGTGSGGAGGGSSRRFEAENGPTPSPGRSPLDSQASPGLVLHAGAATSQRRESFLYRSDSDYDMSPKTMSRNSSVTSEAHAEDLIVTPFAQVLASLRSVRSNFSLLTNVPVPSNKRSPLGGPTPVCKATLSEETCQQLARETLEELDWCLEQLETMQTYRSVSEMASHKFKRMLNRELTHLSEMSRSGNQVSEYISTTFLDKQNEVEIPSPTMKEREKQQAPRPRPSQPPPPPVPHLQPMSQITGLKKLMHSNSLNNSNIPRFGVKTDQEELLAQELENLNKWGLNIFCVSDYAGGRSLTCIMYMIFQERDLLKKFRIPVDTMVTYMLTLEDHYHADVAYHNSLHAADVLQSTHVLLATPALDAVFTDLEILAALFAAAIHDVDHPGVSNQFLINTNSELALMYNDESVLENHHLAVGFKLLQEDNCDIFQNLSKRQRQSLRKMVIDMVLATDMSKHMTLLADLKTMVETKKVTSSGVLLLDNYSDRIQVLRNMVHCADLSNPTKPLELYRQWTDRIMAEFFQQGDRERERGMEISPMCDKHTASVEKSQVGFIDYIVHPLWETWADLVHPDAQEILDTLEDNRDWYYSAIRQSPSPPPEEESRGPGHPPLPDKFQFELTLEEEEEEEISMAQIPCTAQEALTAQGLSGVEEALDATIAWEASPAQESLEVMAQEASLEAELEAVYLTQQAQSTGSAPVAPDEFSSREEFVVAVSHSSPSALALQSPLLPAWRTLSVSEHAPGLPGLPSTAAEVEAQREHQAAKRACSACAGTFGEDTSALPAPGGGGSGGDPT

Mu-type opioid receptor = Mu-type opioid receptor (Homo sapiens, UniProt P35372)
Sequence of Mu-type opioid receptor (P35372 whole entry): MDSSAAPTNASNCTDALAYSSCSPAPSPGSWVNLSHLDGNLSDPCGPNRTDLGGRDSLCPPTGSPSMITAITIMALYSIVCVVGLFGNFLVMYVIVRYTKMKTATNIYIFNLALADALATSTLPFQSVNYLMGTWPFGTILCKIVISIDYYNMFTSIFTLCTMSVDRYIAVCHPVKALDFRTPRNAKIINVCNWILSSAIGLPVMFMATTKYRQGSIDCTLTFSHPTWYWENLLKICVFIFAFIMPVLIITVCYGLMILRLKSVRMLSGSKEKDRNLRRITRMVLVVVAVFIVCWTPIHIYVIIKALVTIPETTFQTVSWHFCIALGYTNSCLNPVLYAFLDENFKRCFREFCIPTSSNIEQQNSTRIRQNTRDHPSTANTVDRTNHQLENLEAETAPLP

[3] = biological target: T3, Gastrin/cholecystokinin type B receptor (Homo sapiens, UniProt P32239)
T3 sequence (P32239 whole entry): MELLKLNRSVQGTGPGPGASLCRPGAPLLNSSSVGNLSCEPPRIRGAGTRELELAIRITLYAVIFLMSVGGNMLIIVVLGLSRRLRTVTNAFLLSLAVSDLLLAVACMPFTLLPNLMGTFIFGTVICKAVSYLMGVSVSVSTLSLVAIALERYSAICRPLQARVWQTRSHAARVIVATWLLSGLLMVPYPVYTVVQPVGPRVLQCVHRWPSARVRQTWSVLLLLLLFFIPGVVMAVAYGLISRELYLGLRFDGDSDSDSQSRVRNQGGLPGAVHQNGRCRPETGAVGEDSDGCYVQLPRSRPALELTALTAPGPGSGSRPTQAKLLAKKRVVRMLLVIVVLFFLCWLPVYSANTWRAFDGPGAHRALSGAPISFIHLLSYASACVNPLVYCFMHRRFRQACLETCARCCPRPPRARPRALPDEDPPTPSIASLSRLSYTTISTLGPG

D(3) dopamine receptor = D(3) dopamine receptor (Homo sapiens, UniProt P35462)
Sequence of D(3) dopamine receptor (P35462 whole entry): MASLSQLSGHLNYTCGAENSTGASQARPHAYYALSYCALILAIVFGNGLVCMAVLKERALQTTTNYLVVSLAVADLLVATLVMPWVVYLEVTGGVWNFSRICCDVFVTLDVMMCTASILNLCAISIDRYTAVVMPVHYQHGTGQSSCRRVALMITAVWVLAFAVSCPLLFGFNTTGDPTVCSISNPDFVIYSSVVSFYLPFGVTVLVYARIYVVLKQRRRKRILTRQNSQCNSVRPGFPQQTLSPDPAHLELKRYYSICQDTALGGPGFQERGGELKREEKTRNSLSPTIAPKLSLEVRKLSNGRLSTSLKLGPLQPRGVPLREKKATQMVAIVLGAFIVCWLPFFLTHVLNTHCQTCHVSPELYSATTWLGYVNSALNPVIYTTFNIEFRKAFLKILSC

[4] = biological target: T4, Alpha-1A adrenergic receptor (Homo sapiens, UniProt P35348); type: functional, cell-based
T4 sequence (P35348 whole entry): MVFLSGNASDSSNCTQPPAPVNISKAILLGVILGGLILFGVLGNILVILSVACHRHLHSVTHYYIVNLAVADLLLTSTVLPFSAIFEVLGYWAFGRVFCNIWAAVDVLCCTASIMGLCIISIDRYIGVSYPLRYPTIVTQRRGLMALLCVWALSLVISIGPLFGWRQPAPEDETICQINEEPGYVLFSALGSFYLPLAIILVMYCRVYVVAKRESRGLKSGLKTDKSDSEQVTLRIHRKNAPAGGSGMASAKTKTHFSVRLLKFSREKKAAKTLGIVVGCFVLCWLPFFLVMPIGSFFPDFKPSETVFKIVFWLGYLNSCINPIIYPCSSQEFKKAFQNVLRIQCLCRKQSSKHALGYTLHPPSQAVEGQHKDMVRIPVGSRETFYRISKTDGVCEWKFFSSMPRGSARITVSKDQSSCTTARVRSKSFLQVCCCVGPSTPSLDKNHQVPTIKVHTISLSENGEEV

[5] = biological target: Prostaglandin G/H synthase 1 (Homo sapiens, UniProt P23219); type: functional
Sequence of Prostaglandin G/H synthase 1 (P23219 whole entry): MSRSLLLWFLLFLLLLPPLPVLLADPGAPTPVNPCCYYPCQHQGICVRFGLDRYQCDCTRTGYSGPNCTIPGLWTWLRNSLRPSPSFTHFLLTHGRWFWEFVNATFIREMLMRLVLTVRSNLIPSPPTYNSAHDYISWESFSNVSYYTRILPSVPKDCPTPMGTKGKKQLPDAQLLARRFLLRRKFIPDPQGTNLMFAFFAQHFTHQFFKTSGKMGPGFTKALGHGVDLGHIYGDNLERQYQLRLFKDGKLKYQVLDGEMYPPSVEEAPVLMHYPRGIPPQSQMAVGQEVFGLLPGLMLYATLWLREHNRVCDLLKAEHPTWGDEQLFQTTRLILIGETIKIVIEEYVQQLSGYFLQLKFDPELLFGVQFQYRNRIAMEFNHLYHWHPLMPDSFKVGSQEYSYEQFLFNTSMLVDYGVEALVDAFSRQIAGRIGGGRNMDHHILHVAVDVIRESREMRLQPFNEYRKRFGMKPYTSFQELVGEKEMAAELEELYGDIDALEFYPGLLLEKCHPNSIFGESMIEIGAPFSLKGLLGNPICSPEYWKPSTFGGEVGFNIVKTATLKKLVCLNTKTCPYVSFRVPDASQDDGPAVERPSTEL

Progesterone receptor [6] = biological target: T2, Progesterone receptor
Histamine H1 receptor = Histamine H1 receptor (Homo sapiens, UniProt P35367)
Sequence of Histamine H1 receptor (P35367 whole entry): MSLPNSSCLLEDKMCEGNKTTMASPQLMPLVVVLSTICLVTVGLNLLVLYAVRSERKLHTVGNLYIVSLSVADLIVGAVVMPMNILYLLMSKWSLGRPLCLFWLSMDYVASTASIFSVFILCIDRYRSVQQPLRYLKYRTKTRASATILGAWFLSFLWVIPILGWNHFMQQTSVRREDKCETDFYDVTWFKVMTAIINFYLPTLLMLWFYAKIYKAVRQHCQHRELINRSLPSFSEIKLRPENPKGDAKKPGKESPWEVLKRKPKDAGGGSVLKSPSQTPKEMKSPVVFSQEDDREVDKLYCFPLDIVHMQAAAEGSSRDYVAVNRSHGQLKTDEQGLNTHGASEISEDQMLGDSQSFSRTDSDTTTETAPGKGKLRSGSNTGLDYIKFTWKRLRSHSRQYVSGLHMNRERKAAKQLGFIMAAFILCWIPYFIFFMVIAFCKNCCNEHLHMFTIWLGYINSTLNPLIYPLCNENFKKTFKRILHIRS

Measured: AC50
Further: assay procedure not described here.

NCC(CC(=O)O)c1ccc(Cl)cc1 (configuration not stated) [BACLOFEN]
> 10 µM: Cannabinoid receptor 1 | Histamine H2 receptor
14.7 µM: D(3) dopamine receptor
not listed: Histamine H1 receptor
> 30 µM: all other assays above

CC1(C)NC(=O)N(c2ccc([N+](=O)[O-])c(C(F)(F)F)c2)C1=O [NILUTAMIDE]
> 3 µM: Thromboxane A2 receptor | [4]
12.7 µM: Progesterone receptor [6]
> 30 µM: all other assays above

CC[C@H]1OC(=O)[C@H](C)[C@@H](O[C@H]2C[C@@](C)(OC)[C@@H](O)[C@H](C)O2)[C@H](C)[C@@H](O[C@@H]2O[C@H](C)C[C@H](N(C)C)[C@H]2O)[C@](C)(O)C[C@@H](C)CN(C)[C@H](C)[C@@H](O)[C@]1(C)O [AZITHROMYCIN]
> 10 µM: Cannabinoid receptor 1 | Histamine H2 receptor
not listed: Progesterone receptor [1] | Histamine H1 receptor
> 30 µM: all other assays above

CO[C@H]1C[C@@H]2CC[C@@H](C)[C@@](O)(O2)C(=O)C(=O)N2CCCC[C@H]2C(=O)O[C@H]([C@H](C)C[C@@H]2CC[C@@H](O)[C@H](OC)C2)CC(=O)[C@H](C)/C=C(\C)[C@@H](O)[C@@H](OC)C(=O)[C@H](C)C[C@H](C)/C=C/C=C/C=C/1C [SIROLIMUS]
> 10 µM: Cannabinoid receptor 1 | Histamine H2 receptor
23.3 µM: [5]
not listed: Progesterone receptor [1] | Histamine H1 receptor
> 30 µM: all other assays above
